Structures can show the parent of a compound that is named as a salt.
How the values were obtained:
[1] = system: P388/O tumour cells; assay: Lymphocytic Leukemia P388/0 Test; assay type: in vivo, CD2-F₁ mice; conditions: for 30-Day Survivors: at optimal dose, survivors per 6 animals of the dose group; for % T/C*: ratio of median survival time treated/control x 100 at optimal dose, excluding 30 day survivors, criterion for activity T/C x 100 ≧120%
Source text: Methods for evaluating the antitumor activity of these compounds are essentially those used in the Tumour Panel by the Development Therapeutics Program, Division of Cancer Treatment, National Cancer Institute, A. Goldin et al., Methods in Cancer Research, Vol. XVI, p.165, Academic Press (1979). Some modifications, in dose level and schedule have been made to increase the testing efficiency.
(§1) CD2-F₁ mice, of the same sex weighing within 20+3g, are used for this test. Control and test animals are injected intraperitoneally with a suspension of 10⁶ viable P388/O tumour cells on day 0. In each test several dose levels which bracket the LD₂₀ for the compound are evaluated; each dose level group contains 6 animals. The test compounds are prepared either in physiologic saline containing 0.05% Tween 80 or distilled water containing 5% dextrose and are administered intraperitoneally on days, 1, 5, and 9 relative to tumor implant. Doses are on a mg/kg basis according to individual animals' body weights. the day of death for each animal is recorded, the median identified for each group and the ratios of median survival time for treated (T)/control (C) groups are calculated. The criterion for activity is T/C x 100 ≧120%.

[2] = LD20 determined in the P388/0 test; assay type: in vivo
Description: as §1

[3] = mice, intraperitoneally on days 1, 5 and 9

| Compound | 30-Day Survivors [1] | % T/C* [1] [%] | LD20 ([2]; mouse, in vivo, ip) [mg/kg] | LD20 [2, 3] [mg/kg] |
| --- | --- | --- | --- | --- |
| Cn1c2ccccc2c2sc3cc(CNC(C)(CO)CO)ccc3c21 [Example 16, 2-(((10-Methyl-10H-[1]benzothieno[3,2-b]indol-3-yl)methyl)amino)-2-methyl-1,3-propanediol hydrochloride] | 0/6 | 170 | 250 |  |
| Cn1c2ccccc2c2cc(CNC(C)(CO)CO)c3sccc3c21 [Example 2C, 2-Methyl-2-(((10-methyl-10H-thieno(3,2-a)carbazol-4-yl)methyl)amino)-1,3-propanediol methanesulfonate] | 0/6 | 195 | 375 |  |
| Cn1c2cccc(CNC(C)(CO)CO)c2c2sc3ccccc3c21 [Example 15D, 2-(((10-Methyl-10H-[1]benzothieno[3,2-b]indol-6-yl)methyl)amino)-2-methyl-1,3-propanediol Hydrochloride] | 5/6 | 140 | 225 |  |
| CC(CO)(CO)NCc1ccc2oc3ccc4occc4c3c2c1.Cl [Example 5E, 2-(((Benzofuro(5,4-b)benzofuran-9-yl)methyl)amino)-2-methyl-1,3-propanediol Hydrochloride] | 0/6 | 117 |  | 175 |
| CC(CO)(CO)NCc1cc2oc3ccccc3c2c2ccoc12.Cl [Example 6E, 2-(((Benzofuro(5,4-b)benzofuran-4-yl)methyl)amino)-2-methyl-1,3-propanediol Hydrochloride] | 1/6 | 213 |  | 60 |
| CC(CO)(CO)NCc1c2ccoc2cc2c1oc1ccccc12.Cl [Example 9E, 2-(((Benzofuro(5,6-b)benzofuran-4-yl)methyl)amino)-2-methyl 1,3-propanediol Hydrochloride] | 0/6 | 192 |  | 75 |
| Cl.Cn1cc(CNC(C)(CO)CO)c2ccc3oc4ccccc4c3c21 [Example 13E, 2-Methyl-2-(((1-methyl-1H-benzofuro[2,3-g]indole-3-yl)methyl)amino)-1,3-propanediol Hydrochloride] | 0/6 | 120 |  | 115 |
| Cl.Cn1cc(CNC(C)(CO)CO)c2c3sc4ccccc4c3ccc21 [Example 14B, 2-Methyl-2-(((3-methyl-3H-[1]benzothieno[2,3-e]indol-1-yl)methyl)amino)-1,3-propanediol Hydrochloride] | 0/6 | 215 |  | 150 |
| CC(CO)(CO)NCc1cc2c(ccc3oc4ccccc4c32)o1.Cl [Example 7B, 2-(((Benzofuro(5,4-b)benzofuran-2-yl)methyl)amino)-2-methyl-1,3-propanediol hydrochloride] | 0/6 | 138 |  | 175 |
| CC(CO)(CO)NCc1ccc2c(c1)oc1ccc3occc3c12.Cl [Example 4M, 2(((Benzofuro(5,4-b)benzofuran-8-yl)methyl)amino)-2-methyl-1,3-propanediol Hydrochloride] | 0/6 | 117 |  | >450 |
| CC(CO)(CO)NCc1ccc2oc3cc4ccoc4cc3c2c1.Cl [Example 8H, 2(((Benzofuro(5,6-b)benzofuran-8-yl)methyl)amino)-2-methyl-1,3-propanediol Hydrochloride] | 0/6 | 200 |  | 300 |
| Cl.Cn1cc(CNC(C)(CO)CO)c2ccc3sc4ccccc4c3c21 [Example 11E, 2-Methyl-2-(((1-methyl-1H-[1]benzothieno[2,3]indol-3-yl)methyl)amino)-1,3-propanediol Hydrochloride] | 0/6 | 135 |  | 250 |
| CC(CO)(CO)NCc1cc2cc3oc4ccccc4c3cc2o1.Cl [Example 10B, 2-(((Benzofuro(5,6-b)benzofuran-2-yl)methyl)amino)-2-methyl-1,3-propanediol Hydrochloride] | 0/6 | 100 |  | >675 |
| Cl.Cn1c2ccccc2c2oc3c(CNC(C)(CO)CO)cccc3c21 [Example 1E, 2-Methyl-2-(((10-methyl-10H-benzofuro(3,2-b)indol-6-yl)methyl)amino)-1,3-propanediol Hydrochloride] | 0/6 | 210 |  | 150 |
| CCn1c2ccccc2c2c3c(ccc21)c(CNC(C)(CO)CO)cn3C [Example 12C, 2-(((6-Ethyl-1,6-dihydro-1-methylpyrrolo[3,2-c]carbazol-3-yl)methyl)-amino)-2-methyl-1,3-propanediol Hydrochloride 0.6 H₂O] | 0/6 | 113 | 100 |  |
| Cn1c2ccccc2c2ccc3sc(CNC(C)(CO)CO)cc3c21 [Example 3B, 2-Methyl-2-(((10-methyl-10H-thieno(3,2-a)carbazol-2-yl)methyl)amino)-1,3-propanediol methanesulfonate] | 0/6 | 195 | 375 |  |
